According to patent US8093393B2, “Cationic ceramides, and analogs thereof, and their use for preventing or treating cancer” (MUSC Foundation for Research Development, priority 2004, dated 2012):

Columns and labels:
UM-SCC-22A cells = conditions: 1 μM
Protocol: B) The subcellular accumulation of L-t-C6-Pyr-Cer at 1-48 hr was detected by LC/MS in UM-SCC-22A cells after differential centrifugation, as described in Materials and Methods.
Subcellular fractionation, and the analysis of ceramide subspecies by mass spectroscopy (MS). The sub-cellular accumulation of L-t-C6-Pyr-Cer was analyzed by utilizing normal phase high performance liquid chromatography and mass spectroscopy (LC/MS). […] In short, cells were incubated in a buffer containing 300 mM sucrose, 10 mM Hepes (pH 7.4), 1 mM EDTA and 0.5 mM PMSF for 30 minutes on ice. The cells were then passed through 25-gauge needle for 5 strokes, and centrifuged at 1,000×g for 10 mM, 10,000×g for 10 min, and 100,000×g for 60 min at 4° C., for collection of the nuclei-, mitochondria-enriched fractions, and microsomes, respectively.

hTERT = hTERT mRNA (Q-PCR) and protein (Western blot) in tumor tissues; format: in vivo, human
From the text: FIG. 29. […] In (B), DNA samples obtained from tumors treated with GMZ (G), L-t-C6-Pyr-Cer (Cer), and the combination of L-t-C6-Pyr-Cer with GMZ (G/C, lanes 2-4, respectively) were compared to that of untreated (U) tumors (lane 1). Lanes 5 and 6 contain DNA samples with low (L) and high (H) molecular weight (3.9 and 10.2 kb, respectively) telomeres. In (D) The levels of hTERT protein in samples obtained from tumors treated with GMZ (G), L-t-C6-Pyr-Cer (Cer), and the combination of L-t-C6-Pyr-Cer with GMZ (G/Cer, lanes 2-4, respectively) were determined by Western blot analysis using rabbit polyclonal anti-hTERT antibody, and compared to that of untreated (U) tumors (lane 1). […]
Determination of telomerase activity, hTERT mRNA and protein levels in tumor tissues. Telomerase activity in tissues was measured by the PCR-based telomere repeat amplification protocol (TRAP) using TRAPeze kit (Invitrogen) which includes a 36-bp internal control to allow quantification of activity. The intensity of telomere-specific DNA bands, measured using Quantity One (BioRad) software, were normalized to the intensity of internal control bands for each sample on polyacrylamide gels for quantification. […] The protein levels of hTERT in these tumor tissue extracts (in CHAPS buffer) were determined by Western blot analysis using anti-hTERT rabbit polyclonal antibody (CalBiochem) at 1:1000 dilution. […]

[1] = BALB/c mice
Protocol: The determination of MTD, and pharmacokinetic parameters, such as clearance from the serum, and bioaccumulation in various organs, of L-t-C6-Pyr-Cer in vivo. A) MTD of L-t-C6-Pyr-Cer was determined in dose escalation studies, in which BALB/c mice were treated (by IP injections) with increasing concentrations of the compound (10-150 mg/kg), dissolved in sterile saline solution, for 24 hr. […] B and C) The levels of L-t-C6-Pyr-Cer in the serum (B) or in the vital organs (C) of the BALB/c mice were measured by LC/MS after IP injection of the compound for various time points. The experiments were performed in two independent trials as duplicates, and error bars represent standard deviations.
Animal studies. […] The maximum tolerated dose (MTD) of L-t-C6-Pyr-Cer was determined by dose escalation studies. In short, 7-week-old BALB/c mice were treated with increasing concentrations of the compound for various time intervals. Possible toxicity of the compound to the vital organs of the animals was analyzed by both gross examination, and histopathology. The accumulation of the compound in vital organs and in the serum was also determined by LC/MS as described previously Koybasi S et al. J Biol Chem 2004; 279:44311-44319).

CCCCCCCCCCCCC/C=C/[C@H](O)[C@H](CO)NC(=O)CCCCC[n+]1ccccc1.[Br-] [LCL124, L-threo-2-N-[6′-(1″-Pyridinium)-hexanoyl]-sphingosine Bromide]
amount in supernatant or pellet of 100,000×g fractions (UM-SCC-22A cells): either not detectable (at 1-6 hr), or minimal (at 12-48 hr) | level in the 10,000×g (mitochondria enriched) fraction (UM-SCC-22A cells; 3-48 hr): 1,000-3,000 pmol/0.1 mg protein | level in the 1,000×g (nuclei enriched) fraction (UM-SCC-22A cells; 6-48 hr): 250-2,500 pmol/0.1 mg protein | hTERT mRNA levels in tumors (hTERT; Q-PCR): decreased levels of hTERT mRNA and protein expression | hTERT protein levels in tumors (hTERT; Western blot): decreased levels of hTERT mRNA and protein expression | doses without any detectable toxicity ([1]; 1-4 days): 10 to 80 mg/kg | maximum tolerated dose (MTD) ([1]; IP): 80 mg/kg | toxic concentrations (severe abdominal bloating, intestinal malfunction) ([1]; IP, 24 hr): ≥ 100 mg/kg | single dose resulting in toxicity (abdominal bloating, intestinal malfunction) ([1]; IP, after about 6 hr): 120 to 150 mg/mL
